Reference: PubChem BioAssay (NCI)
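Growth conditions: 96-well plates. Treatment: test compound, 48 hours, 5 concentrations. Analysis: linear interpolation between bracketing concentrations; unreached endpoints set to highest concentration. GI50 is the concentration that inhibits growth by half. TGI: total growth inhibition.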

Columns and labels:
Test in all cases: NCI-60 cell line screen, 48 h
[1] = tested on: SK-MEL-5 melanoma
[2] = tested on: NCI-H522 lung
[3] = tested on: IGROV1 ovarian
[4] = tested on: OVCAR-4 ovarian
[5] = tested on: SW-620 colon
[6] = tested on: SF-539 CNS
[7] = tested on: OVCAR-8 ovarian
[8] = tested on: SF-295 CNS
[9] = tested on: TK-10 renal
[10] = tested on: SF-268 CNS

## CC(=O)[C@H]1CC[C@H]2[C@@H]3CCC4=CC(=O)CC[C@]4(C)[C@H]3CC[C@]12C
[1]
  TGI: 24.8 µM
[2]
  TGI: 31 µM
[3]
  TGI: 71.4 µM
[4]
  TGI: 79.3 µM
[5]
  TGI: > 100 µM
[6]
  TGI: 34.1 µM
[7]
  TGI: 47.3 µM
[8]
  TGI: 76 µM
[9]
  TGI: 52.2 µM
[10]
  TGI: 69.8 µM

## NC(Cc1ccccc1)=NCC(=O)O
[1]
  TGI: > 100 µM
[2]
  TGI: > 100 µM
[3]
  TGI: > 100 µM
[4]
  TGI: > 100 µM
[5]
  TGI: > 100 µM
[7]
  TGI: > 100 µM
[8]
  TGI: > 100 µM
[9]
  TGI: > 100 µM
[10]
  TGI: > 100 µM

## O=C(O)CS(=O)c1ccc2c3c(cccc13)C(=O)c1ccccc1-2 (configuration not stated)
[1]
  TGI: > 100 µM
[2]
  TGI: > 100 µM
[3]
  TGI: > 100 µM
[4]
  TGI: > 100 µM
[5]
  TGI: > 100 µM
[6]
  TGI: > 100 µM
[7]
  TGI: > 100 µM
[8]
  TGI: > 100 µM
[9]
  TGI: > 100 µM
[10]
  TGI: > 100 µM

## Cc1ccc2ccc(=O)oc2c1
[1]
  TGI: > 100 µM
[2]
  TGI: > 100 µM
[3]
  TGI: > 100 µM
[4]
  TGI: > 100 µM
[5]
  TGI: > 100 µM
[6]
  TGI: > 100 µM
[7]
  TGI: > 100 µM
[8]
  TGI: > 100 µM
[9]
  TGI: > 100 µM
[10]
  TGI: > 100 µM

## O=C(Nc1ccc(-n2cc(-c3ccncc3)c(-c3ccc(O)c(Cl)c3)n2)cc1)c1cc(Cl)cc(Cl)c1
[1]
  GI50: 0.877 µM
  TGI: 6.85 µM
[2]
  GI50: 1.03 µM
  TGI: > 32.5 µM
[3]
  GI50: > 32.5 µM
  TGI: > 32.5 µM
[4]
  GI50: 2.56 µM
  TGI: > 32.5 µM
[5]
  GI50: 2.21 µM
  TGI: > 32.5 µM
[6]
  GI50: 1.01 µM
  TGI: > 32.5 µM
[7]
  GI50: 1.66 µM
  TGI: > 32.5 µM
[8]
  GI50: 1.05 µM
  TGI: 5.3 µM
[9]
  GI50: 6.8 µM
  TGI: > 32.5 µM
[10]
  GI50: 3.85 µM
  TGI: > 32.5 µM

## O=C(O)CCC(C(=O)O)N1C(=O)c2ccccc2C1=O (configuration not stated)
[1]
  TGI: > 100 µM
[2]
  TGI: > 100 µM
[3]
  TGI: > 100 µM
[4]
  TGI: > 100 µM
[5]
  TGI: > 100 µM
[7]
  TGI: > 100 µM
[8]
  TGI: > 100 µM
[9]
  TGI: > 100 µM
[10]
  TGI: > 100 µM

## CCOC(O)C(F)(F)F (configuration not stated)
[1]
  TGI: > 100 µM
[5]
  TGI: > 100 µM
[7]
  TGI: > 100 µM
[8]
  TGI: > 100 µM
[9]
  TGI: > 100 µM
[10]
  TGI: > 100 µM

## COc1cc(C(=O)O[C@H](C(=O)NCCNC(=O)[C@@H](OC(=O)c2cc(OC)cc3c(C)cccc23)[C@]2(C)CO2)[C@]2(C)CO2)c2cccc(C)c2c1
[1]
  GI50: 0.0331 µM
  TGI: 0.28 µM
[3]
  GI50: < 0.0475 µM
  TGI: 5.28 µM
[4]
  GI50: 0.125 µM
  TGI: > 100 µM
[5]
  GI50: < 0.01 µM
  TGI: > 100 µM
[6]
  GI50: < 0.0348 µM
  TGI: 0.371 µM
[7]
  GI50: < 0.01 µM
  TGI: 0.0683 µM
[8]
  GI50: 0.173 µM
  TGI: 0.793 µM
[9]
  GI50: 0.475 µM
  TGI: 1.9 µM
[10]
  GI50: < 0.01 µM
  TGI: 0.191 µM

## O=C(Nc1ccc(Cl)cc1)c1cccc([N+](=O)[O-])c1O
[1]
  TGI: 4.86 µM
[2]
  TGI: 6.36 µM
[3]
  TGI: > 80.3 µM
[4]
  TGI: > 100 µM
[5]
  TGI: > 100 µM
[6]
  TGI: > 74.1 µM
[7]
  TGI: > 69.8 µM
[8]
  TGI: 15.5 µM
[9]
  TGI: > 44.4 µM
[10]
  TGI: > 85 µM
